14 compounds from ChEMBL document CHEMBL1154879, “Discovery of (thienopyrimidin-2-yl)aminopyrimidines as potent, selective, and orally available pan-PI3-kinase and dual pan-PI3-kinase/mTOR inhibitors for the treatment of cancer” (J Med Chem, 2010) can be followed below.

Data set [1] addresses Phosphatidylinositol 4,5-bisphosphate 3-kinase catalytic subunit alpha isoform (Homo sapiens, UniProt P42336).
A short description of data set [2]: Oral bioavailability in Sprague-Dawley rat at 2 mg/kg. The data set is classed as ADME, organism-based. The conditions noted are these: in vivo.
The nature of data set [3]: Clearance in Sprague-Dawley rat liver microsomes. Type of data set: ADME, Microsome.
A short description of data set [4]: Clearance in Sprague-Dawley rat at 1 mg/kg, iv. The data set is classed as ADME, organism-based. More on the design: dose 1 mg/kg, route intravenous. The conditions noted are these: in vivo.
A further data set deals with PC-3. Briefly: Antiproliferative activity against human PC3 cells deficient in PTEN in after 3 to 4 days. The data set is classed as functional, cell-based.
Data set [5] can be described thus: Clearance in Beagle dog at 1 mg/kg, iv. The data set is classed as ADME, organism-based, Canis lupus familiaris. Further details: dose 1 mg/kg, route intravenous. The conditions noted are these: in vivo.
Data set [6] deals with Phosphatidylinositol 4,5-bisphosphate 3-kinase catalytic subunit beta isoform (Homo sapiens, UniProt P42338). Briefly: Inhibition of recombinant PI3Kbeta assessed as PIP3 product formation by fluorescence polarization assay. Background: Polarisation of emitted light reports the rotation of a fluorescent probe.
Chain of Phosphatidylinositol 4,5-bisphosphate 3-kinase catalytic subunit beta isoform (P42338 whole entry, canonical isoform): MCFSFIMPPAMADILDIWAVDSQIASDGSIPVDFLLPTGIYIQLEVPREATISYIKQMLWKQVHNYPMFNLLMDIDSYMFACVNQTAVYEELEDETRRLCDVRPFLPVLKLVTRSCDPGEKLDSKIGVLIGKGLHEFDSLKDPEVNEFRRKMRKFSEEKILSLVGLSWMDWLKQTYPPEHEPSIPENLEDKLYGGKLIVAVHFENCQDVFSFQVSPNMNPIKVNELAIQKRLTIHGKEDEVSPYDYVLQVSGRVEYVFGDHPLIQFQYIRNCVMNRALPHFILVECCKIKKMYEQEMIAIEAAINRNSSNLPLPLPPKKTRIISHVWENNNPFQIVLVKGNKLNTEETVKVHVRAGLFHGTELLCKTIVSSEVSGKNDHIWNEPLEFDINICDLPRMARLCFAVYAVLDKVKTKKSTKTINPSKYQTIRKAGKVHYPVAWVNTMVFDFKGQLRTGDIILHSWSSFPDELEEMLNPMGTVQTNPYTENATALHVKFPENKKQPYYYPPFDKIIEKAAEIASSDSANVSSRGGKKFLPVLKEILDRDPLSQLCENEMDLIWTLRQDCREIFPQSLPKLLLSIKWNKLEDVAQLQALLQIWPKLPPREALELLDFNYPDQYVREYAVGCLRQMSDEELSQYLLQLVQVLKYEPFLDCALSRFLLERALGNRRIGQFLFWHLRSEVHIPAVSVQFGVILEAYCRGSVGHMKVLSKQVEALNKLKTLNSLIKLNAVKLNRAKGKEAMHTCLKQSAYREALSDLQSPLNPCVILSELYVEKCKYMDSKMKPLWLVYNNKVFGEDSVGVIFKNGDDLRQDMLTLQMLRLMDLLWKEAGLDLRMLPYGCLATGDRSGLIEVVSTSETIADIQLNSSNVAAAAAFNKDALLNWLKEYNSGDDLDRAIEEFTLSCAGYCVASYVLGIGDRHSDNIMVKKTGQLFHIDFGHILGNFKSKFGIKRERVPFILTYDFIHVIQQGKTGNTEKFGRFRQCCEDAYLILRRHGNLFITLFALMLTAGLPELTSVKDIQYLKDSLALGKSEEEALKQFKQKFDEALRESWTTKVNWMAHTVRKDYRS
A short description of data set [7]: Antiproliferative activity against human MCF7.1 cells expressing PI3Kalpha mutant after 3 to 4 days. The data set is classed as functional, cell-based.
Data set [8] concerns the target T1, Phosphatidylinositol 4,5-bisphosphate 3-kinase catalytic subunit delta isoform (Homo sapiens, UniProt O00329).
T1 sequence (O00329 whole entry): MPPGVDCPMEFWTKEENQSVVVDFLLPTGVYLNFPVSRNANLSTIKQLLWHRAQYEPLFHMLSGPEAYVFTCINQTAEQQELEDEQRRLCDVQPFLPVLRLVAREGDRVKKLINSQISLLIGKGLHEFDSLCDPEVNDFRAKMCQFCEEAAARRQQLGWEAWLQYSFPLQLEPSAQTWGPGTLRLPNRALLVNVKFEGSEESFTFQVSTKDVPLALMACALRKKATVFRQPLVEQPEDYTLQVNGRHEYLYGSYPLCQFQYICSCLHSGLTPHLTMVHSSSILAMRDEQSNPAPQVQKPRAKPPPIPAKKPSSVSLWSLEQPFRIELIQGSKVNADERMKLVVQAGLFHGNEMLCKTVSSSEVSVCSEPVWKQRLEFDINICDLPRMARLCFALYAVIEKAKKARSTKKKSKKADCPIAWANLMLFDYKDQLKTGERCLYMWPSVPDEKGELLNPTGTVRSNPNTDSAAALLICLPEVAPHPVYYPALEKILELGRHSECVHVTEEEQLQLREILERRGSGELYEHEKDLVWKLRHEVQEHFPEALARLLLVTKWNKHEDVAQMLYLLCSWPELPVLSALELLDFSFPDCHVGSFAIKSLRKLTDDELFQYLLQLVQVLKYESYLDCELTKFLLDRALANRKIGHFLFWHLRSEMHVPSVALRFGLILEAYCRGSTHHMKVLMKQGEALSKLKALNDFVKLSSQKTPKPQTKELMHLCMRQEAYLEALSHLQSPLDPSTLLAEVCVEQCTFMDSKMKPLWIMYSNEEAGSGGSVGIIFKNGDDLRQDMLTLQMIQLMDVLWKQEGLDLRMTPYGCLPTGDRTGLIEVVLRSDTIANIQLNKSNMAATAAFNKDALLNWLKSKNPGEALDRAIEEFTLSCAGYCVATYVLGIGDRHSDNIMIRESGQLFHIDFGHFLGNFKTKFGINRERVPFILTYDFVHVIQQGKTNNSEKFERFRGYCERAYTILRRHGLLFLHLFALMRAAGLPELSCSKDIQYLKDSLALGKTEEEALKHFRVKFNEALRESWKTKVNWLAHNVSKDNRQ

Data set [9] concerns the target Phosphatidylinositol 4,5-bisphosphate 3-kinase catalytic subunit gamma isoform (Homo sapiens, UniProt P48736).
The target of data set [10] is Serine/threonine-protein kinase mTOR (Homo sapiens, UniProt P42345).
A short description of data set [11]: Oral bioavailability in Sprague-Dawley rat at 5 mg/kg, po. Conditions: in vivo. Type of data set: ADME, organism-based.
Data set [12] is described as follows: Volume of distribution at steady state in Sprague-Dawley rat at 1 mg/kg, iv. Type of data set: ADME, organism-based. Further details: dose 1 mg/kg, route intravenous. Conditions: in vivo, read-out: Vdss.

The term IC50 denotes the concentration that inhibits the measured activity by half. The term bioavailability denotes the share of a dose that reaches the circulation, judged against a reference dose that is usually intravenous. Low readings indicate poor availability, high ones good availability. As usually defined, the CLint scaled is the capacity of the preparation to metabolise the compound, expressed as a volume cleared per time. Lower therefore signals slow turnover. As usually defined, the clearance is a measure of how efficiently the substance is removed, as volume per time.

SMILES strings stand for the structures.

Chain of Phosphatidylinositol 4,5-bisphosphate 3-kinase catalytic subunit gamma isoform (P48736 whole entry, canonical isoform): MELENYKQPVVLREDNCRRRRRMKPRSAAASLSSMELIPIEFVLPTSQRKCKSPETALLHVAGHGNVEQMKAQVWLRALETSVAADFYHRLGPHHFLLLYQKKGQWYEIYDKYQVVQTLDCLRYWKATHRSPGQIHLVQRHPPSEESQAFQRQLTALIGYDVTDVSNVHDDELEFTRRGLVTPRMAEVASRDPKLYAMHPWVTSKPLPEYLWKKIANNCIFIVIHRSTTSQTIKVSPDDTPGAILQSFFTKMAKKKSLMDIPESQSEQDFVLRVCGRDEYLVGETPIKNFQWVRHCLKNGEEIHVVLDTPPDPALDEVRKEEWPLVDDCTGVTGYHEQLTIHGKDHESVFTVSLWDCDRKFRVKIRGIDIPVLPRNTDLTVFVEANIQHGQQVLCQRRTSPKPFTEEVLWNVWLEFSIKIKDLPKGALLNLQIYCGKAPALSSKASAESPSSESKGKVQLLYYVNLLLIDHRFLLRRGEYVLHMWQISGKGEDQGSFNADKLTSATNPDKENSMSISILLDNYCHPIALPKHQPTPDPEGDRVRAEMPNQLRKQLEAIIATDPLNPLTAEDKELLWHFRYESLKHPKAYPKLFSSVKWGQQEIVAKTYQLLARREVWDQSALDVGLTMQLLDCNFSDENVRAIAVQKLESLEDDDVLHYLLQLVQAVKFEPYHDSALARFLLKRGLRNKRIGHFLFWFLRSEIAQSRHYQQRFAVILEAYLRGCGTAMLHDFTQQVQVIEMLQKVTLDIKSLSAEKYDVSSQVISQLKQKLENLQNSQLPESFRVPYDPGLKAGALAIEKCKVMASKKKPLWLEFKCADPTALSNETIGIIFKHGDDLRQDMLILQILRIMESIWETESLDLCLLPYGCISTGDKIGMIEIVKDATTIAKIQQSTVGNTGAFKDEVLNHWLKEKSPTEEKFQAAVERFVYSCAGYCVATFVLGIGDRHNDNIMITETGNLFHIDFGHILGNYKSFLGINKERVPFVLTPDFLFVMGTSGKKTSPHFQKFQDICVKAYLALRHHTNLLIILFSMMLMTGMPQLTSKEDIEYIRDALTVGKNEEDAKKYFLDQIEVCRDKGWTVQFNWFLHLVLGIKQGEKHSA
Chain of Phosphatidylinositol 4,5-bisphosphate 3-kinase catalytic subunit alpha isoform (P42336 whole entry, canonical isoform): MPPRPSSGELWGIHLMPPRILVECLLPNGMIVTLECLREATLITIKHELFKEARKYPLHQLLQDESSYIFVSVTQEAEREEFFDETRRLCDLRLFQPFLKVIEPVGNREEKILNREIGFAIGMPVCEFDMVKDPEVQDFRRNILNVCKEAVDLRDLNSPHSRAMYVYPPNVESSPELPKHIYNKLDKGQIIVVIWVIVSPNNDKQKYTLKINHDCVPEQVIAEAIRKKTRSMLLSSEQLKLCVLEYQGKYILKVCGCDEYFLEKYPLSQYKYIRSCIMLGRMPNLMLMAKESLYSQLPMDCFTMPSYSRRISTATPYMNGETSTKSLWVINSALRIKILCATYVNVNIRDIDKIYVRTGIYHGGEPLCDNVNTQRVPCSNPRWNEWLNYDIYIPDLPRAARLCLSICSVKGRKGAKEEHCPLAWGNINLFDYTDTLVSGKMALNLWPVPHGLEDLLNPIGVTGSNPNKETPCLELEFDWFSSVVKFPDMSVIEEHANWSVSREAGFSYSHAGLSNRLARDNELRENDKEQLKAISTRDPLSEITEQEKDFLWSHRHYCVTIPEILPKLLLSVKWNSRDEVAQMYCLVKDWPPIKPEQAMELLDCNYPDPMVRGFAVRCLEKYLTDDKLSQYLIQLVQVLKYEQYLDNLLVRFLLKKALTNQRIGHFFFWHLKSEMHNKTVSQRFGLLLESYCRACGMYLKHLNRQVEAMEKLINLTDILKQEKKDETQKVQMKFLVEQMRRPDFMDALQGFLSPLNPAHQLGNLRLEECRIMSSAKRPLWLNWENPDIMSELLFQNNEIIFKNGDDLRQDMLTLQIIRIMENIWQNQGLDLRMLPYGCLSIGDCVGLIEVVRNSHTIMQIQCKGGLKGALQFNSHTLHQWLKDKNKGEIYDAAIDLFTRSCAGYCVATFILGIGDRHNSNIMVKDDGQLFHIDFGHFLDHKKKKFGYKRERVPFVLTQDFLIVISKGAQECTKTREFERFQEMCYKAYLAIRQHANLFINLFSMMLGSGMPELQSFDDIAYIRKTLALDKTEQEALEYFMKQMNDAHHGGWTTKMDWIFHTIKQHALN

With `CC(=O)NCc1cc2nc(-c3cccc4[nH]ncc34)nc(N3CCOCC3)c2s1`, the IC50 in [1] was 16 nM; in the data set with PC-3, 1500 nM. Moreover, the bioavailability in data set [2] amounted to 34%. The compound further displayed a CLint scaled in data set [3] of 40 mL/min/kg. The same compound gave a clearance in data set [4] of 86 mL/min/kg.

Consider `CC(O)c1cc2nc(-c3cccc4[nH]ncc34)nc(N3CCOCC3)c2s1` (configuration not stated), for which the figures for the IC50 (in [1]; with PC-3) were 28 nM and 1100 nM, respectively. This compound gave a bioavailability in data set [2] of 17%. The intrinsic clearance (CLint scaled) in data set [3] came to 95 mL/min/kg. This compound also returned a clearance in data set [4] of 101 mL/min/kg.

Regarding `CS(=O)(=O)N1CCN(Cc2cc3nc(-c4ccc(N)nc4)nc(N4CCOCC4)c3s2)CC1`, the concentration for half-maximal inhibition (IC50) in data set [1] is 5.5 nM; in [6] it was 60 nM; in [7], 200 nM; in data set [8], 6.6 nM; with PC-3, 270 nM. This compound also came in with a clearance in data set [5] of 16 mL/min/kg.

In the case of `CS(=O)(=O)N1CCN(Cc2cc3nc(-c4cnc(N)nc4)nc(N4CCOCC4)c3s2)CC1`, the IC50 came to 8.4 nM in data set [9]; 38 nM in data set [6]; 29 nM in data set [10]; 2.4 nM in data set [8]; 300 nM in the data set on PC-3. Also, the clearance in [5] stood at 22 mL/min/kg; in [4] it was 24 mL/min/kg. For the same compound, in data set [11], the bioavailability worked out at 75%. The Vd in data set [12] amounted to 5.6 L/kg.

In the case of `CS(=O)(=O)N1CCN(Cc2cc3nc(-c4cccc(O)c4)nc(N4CCOCC4)c3s2)CC1`, the concentration for half-maximal inhibition (IC50) in data set [1] was determined as 1.6 nM; in [9], 20 nM; in data set [6] it was 11 nM; in data set [7], 36 nM; in data set [8], 0.9 nM; in the data set with PC-3, 21 nM.

On to `Cc1nc(N)ncc1-c1nc(N2CCOCC2)c2sc(CN3CCN(S(C)(=O)=O)CC3)cc2n1`, for which the half-inhibitory concentration (IC50) in data set [1] was 1.1 nM; in [6] it was 6.2 nM; in [10] it was 880 nM; in data set [7], 290 nM; in [8], 0.7 nM; in the data set with PC-3, 230 nM.

In the case of `CS(=O)(=O)N1CCN(Cc2cc3nc(-c4ccccc4)nc(N4CCOCC4)c3s2)CC1`, the concentration for half-maximal inhibition (IC50) was 430 nM in data set [1], 3700 nM in data set [7] and 3700 nM with PC-3.

As for `CS(=O)(=O)N1CCN(Cc2cc3nc(-c4ccncc4)nc(N4CCOCC4)c3s2)CC1`, the 50% inhibitory concentration (IC50) in [1] was determined as 2900 nM; in data set [9] it was 5100 nM; in [6] it was 5400 nM; in [8] it was 310 nM.

`CS(=O)(=O)N1CCN(Cc2cc3nc(-c4cccc(CO)c4)nc(N4CCOCC4)c3s2)CC1`: the IC50 in [1] is 1.8 nM; in data set [7] it was 320 nM; in data set [8], 1.4 nM; in the data set on PC-3 it was 75 nM.

Turning to `CS(=O)(=O)N1CCN(Cc2cc3nc(-c4cccc5[nH]ncc45)nc(N4CCOCC4)c3s2)CC1` [PICTILISIB], the IC50 is 340 nM in data set [7] and 390 nM in the data set with PC-3.

Regarding `CS(=O)(=O)N1CCN(Cc2cc3nc(-c4cccnc4)nc(N4CCOCC4)c3s2)CC1`, the IC50 in data set [1] amounted to 21 nM; in data set [9], 19 nM; in data set [6] it was 14 nM; in [7] it was 1400 nM; in [8], 12 nM; with PC-3 it was 1800 nM.

For `CS(=O)(=O)N1CCN(Cc2cc3nc(-c4ccc(N)cc4)nc(N4CCOCC4)c3s2)CC1`, the 50% inhibitory concentration (IC50) in [1] was 240 nM; in [9] it was 1300 nM; in [6] it was 1400 nM; in [7] it was 2700 nM; in data set [8], 100 nM; in the data set on PC-3 it was 1200 nM.

With `OCc1cc2nc(-c3cccc4[nH]ncc34)nc(N3CCOCC3)c2s1`, the figures for the half-maximal inhibitory concentration (IC50) (in data set [1]; with PC-3) were 29 nM and 1200 nM, respectively. In addition, the CLint scaled in data set [3] is 170 mL/min/kg.

As to `CC(C)(O)c1cc2nc(-c3cccc4[nH]ncc34)nc(N3CCOCC3)c2s1`, the half-maximal inhibitory concentration (IC50) in data set [1] is 22 nM; in data set [10], 130 nM; in data set [7] it was 1400 nM; in the data set on PC-3, 1400 nM. Besides, the bioavailability in data set [2] amounted to 29%. Moreover, in data set [3], the CLint scaled is 40 mL/min/kg. The compound also came in with a clearance in [4] of 16 mL/min/kg.
